The values that follow come from US20100035932A1, “NOVEL FORMYL PEPTIDE RECEPTOR LIKE 1 AGONISTS THAT INDUCE MACROPHAGE TUMOR NECROSIS FACTOR ALPHA AND COMPUTATIONAL STRUCTURE-ACTIVITY RELATIONSHIP ANALYSIS OF THEREOF” (priority 2008, published 2010).

The test system of assay [1] is J774.A1 macrophages. In words: TNF-α production in J774.A1 macrophages (ELISA). To be noted: for fold induction at 50 µM: Mus musculus, J774.A1, 24 h; for Determined class of macrophage TNF-α inducing activity: experimentally determined class. It is filed as cell-based, murine. Background: ELISA stands for enzyme-linked immunosorbent assay.
Assay [2] concerns human neutrophils. In words: Ca2+ mobilization in human neutrophils (FLIPR Calcium 3). The conditions noted are these: Neutrophil, read-out: [Ca2+]i EC50. A general note: A change in cytosolic calcium serves as a functional read-out for many receptors and channels.
Assay [3] relates to J774.A1 macrophages. In words: cells. To be noted: Mus musculus, J774.A1, read-out: Ca2+ Mobilization EC50, Murine Mφ.
Description: Murine macrophage J774.A1 cells were cultured in DMEM supplemented with 10% (v/v) heat-inactivated fetal bovine serum (FBS), 10 mM HEPES, 100 μg/ml streptomycin, and 100 U/ml penicillin. Cells were grown to confluence in sterile tissue culture flasks and gently detached by scraping. […] All cell cultures were grown at 37° C. in a humidified atmosphere containing 5% CO2. Cell number and viability were assessed microscopically using trypan blue exclusion.
Setting [4] is: relative fold of activation compared to vehicle (DMSO) control for 50 μM compound, N.A. = no activity was observed, read-out: TNF-α production.

Usually EC50 stands for the midpoint of the concentration-response curve.

Where two headings read alike, the source gives them in different places.

Take `CCOc1cc(/C=N/NC(=O)c2ccc3c(c2)OCCO3)cc(Br)c1O` [Compound 21]: the fold induction at 50 µM in assay [1] (setting [4]) is under 2. For the same compound, the concentration giving a half-maximal response (EC50) in assay [2] came out at 21.9 µM.
As for `O=C(N/N=C/c1cc(Br)c(Br)o1)c1ccc2c(c1)OCCO2` [Compound 30], the EC50 in assay [2] came out at 9.8 µM.
Consider `O=C(N/N=C/c1cc(Br)cc(Br)c1OC(=O)c1cccc(F)c1)c1ccc2c(c1)OCO2` [Compound 20], for which, in assay [1] (setting [4]), the fold induction at 50 µM was under 2. Moreover, the concentration giving a half-maximal response (EC50) in assay [2] came out at 18.9 µM.
As for `O=C(N/N=C/c1ccco1)c1ccc(Br)cc1O` [Compound 35], the EC50 in assay [2] worked out at 22.7 µM.
Take `O=C(N/N=C/c1cc(Br)cc(I)c1O)c1ccc2c(c1)OCCO2` [Compound 27]: in assay [2], the 50% effective concentration (EC50) came out at 8 µM.
On to `O=C(N/N=C/c1cc(/N=N\c2cccc(C(F)(F)F)c2)ccc1O)c1ccc2c(c1)OCO2` [Compound 28], for which, in assay [2], the half-maximal effective concentration (EC50) was determined as 8.5 µM.
On to `CN(C)c1ccc(/C=N\NC(=O)c2ccccc2)cc1` [Compound 19], for which the fold induction at 50 µM in assay [1] (setting [4]) is under 2. Also, the EC50 in assay [2] was 14.5 µM.
In the case of `COc1ccc(C(=O)N/N=C\c2ccc(N(C)C)cc2)cc1` [Compound 26], in assay [2], the EC50 is 3 µM.
Still for that read-out and setting: to `CN(C)c1ccc(/C=N/NC(=O)c2ccc3c(c2)OCO3)cc1` [Compound 34] belongs 17.9 µM.
`Cc1ccc(C(=O)N/N=C/c2ccc(-c3cc(Cl)c(Cl)cc3Cl)o2)cn1` [Compound 10]: the fold induction at 50 µM in assay [1] (setting [4]) is under 5. The EC50 in assay [2] worked out at 32 µM.
The like results for `O=C(N/N=C/c1ccc(-c2ccc([N+](=O)[O-])cc2Cl)o1)c1ccc2c(c1)OCO2` [Compound 3] were, in that order, 30 to 40 and 0.3 µM.
As to `O=C(N/N=C/c1c(O)ccc2ccccc12)c1ccc2c(c1)OCO2` [Compound 37], the EC50 in assay [2] is 26.8 µM.
`CCOc1cc(/C=N\NC(=O)c2ccc3c(c2)OCO3)cc(Br)c1O` [Compound 18]: the fold induction at 50 µM in assay [1] (setting [4]) was under 2. The EC50 in assay [2] is 12.2 µM.
In the case of `COc1ccc(/C=N/NC(=O)c2ccc3c(c2)OCO3)c(OC)c1` [Compound 38], the concentration giving a half-maximal response (EC50) in assay [2] came out at 28.1 µM.
In the case of `O=C(N/N=C1\C(=O)N(CCc2ccccc2)c2ccccc21)c1ccc2c(c1)OCO2` [Compound 17], the fold induction at 50 µM in assay [1] (setting [4]) was under 2. Besides, the EC50 in assay [2] turned out to be 8.9 µM.
The like results for `O=C(N/N=C/c1ccc(-c2ccc(Cl)c(Cl)c2)o1)c1ccc2c(c1)OCO2` [Compound 8] were, in that order, under 5 and 11.9 µM.
In the case of `CN(C)c1ccc(/C=N\NC(=O)c2ccc([N+](=O)[O-])cc2)cc1` [Compound 4], the fold induction at 50 µM in assay [1] (setting [4]) lay in the range of 20 to 25. For the same compound, the EC50 in assay [2] worked out at 9 µM.
In the case of `O=C(/C=C/c1ccco1)Oc1cccc(/C=N/NC(=O)c2ccc3c(c2)OCO3)c1` [Compound 31], the 50% effective concentration (EC50) in assay [2] is 12.4 µM.
With `COc1cc(/C=N\NC(=O)c2cccc(C)c2O)ccc1OCc1ccccc1` [Compound 25], the EC50 in assay [2] came to 0.74 µM.
Turning to `O=C(N/N=C/c1ccc(-c2cccc(Cl)c2Cl)o1)c1ccccc1` [Compound 5], in assay [1] (setting [4]), the fold induction at 50 µM was 7 to 10. Further, the half-maximal effective concentration (EC50) in assay [2] stood at 2.3 µM.
As for `O=C(N/N=C/c1ccc(-c2ccc(O)c(C(=O)O)c2)o1)c1cccnc1` [Compound 32], in assay [2], the EC50 turned out to be 12.5 µM.
Still for that read-out and setting: to `CN(C)c1ccc(/C=N\NC(=O)c2cccc(F)c2)cc1` [Compound 33] belongs 13.1 µM.
In the case of `Cc1ccc(C(=O)N/N=C/c2ccc(C)o2)cc1` [Compound 36], the concentration for a half-maximal effect (EC50) in assay [2] is 25.5 µM.
For the compound `COc1cc(/C=N\NC(=O)c2cccc(C)c2O)ccc1OCc1ccccc1` [Compound 60], the “Determined class of macrophage TNF-α inducing activity” value (from here on “Determined class”) in assay [1] was “NA (inactive derivatives were placed in the nonactive group labeled “NA”)”.
As for `O=C(N/N=C1\C(=O)N(Cc2cccc3ccccc23)c2ccccc21)c1ccc2c(c1)OCO2` [Compound 29], the EC50 in assay [2] came to 9.3 µM.
For the compound `COc1cc(/C=N\NC(=O)c2ccc3c(c2)OCO3)ccc1OCc1ccccc1` [Compound 54], the fold induction at 50 µM in assay [1] (50 μM compound, above response to vehicle (DMSO) control, Table 5 numbering, N.A. = inactive, read-out: FI (fold-increase of macrophage TNF-α production)) is 7. Further, the “Determined class” value in assay [1] is recorded as “Active”.
On to `O=C(N/N=C/c1ccc(-c2ccc(Cl)c(Cl)c2)o1)c1ccncc1` [Compound 84], for which the “Determined class” value in assay [1] is “NA (inactive derivatives were placed in the nonactive group labeled “NA”)”.
Regarding `Nc1ccc(C(=O)N/N=C/c2ccc(-c3ccc([N+](=O)[O-])cc3Cl)o2)cc1` [Compound 22], the fold induction at 50 µM in assay [1] (setting [4]) was under 2.
Take `C[C@H](CCC(=O)O)C[C@H](C)C[C@H](C)C(=O)/C=C(\O)[C@H](C)C[C@H](C)C/C=C/[C@@H](C)[C@@H](O)[C@@H](C)[C@@H](O)C[C@@H]1CC[C@@](C)([C@H]2CC[C@@](C)([C@@H](C)O)O2)O1` [ionomycin, reference compound]: in assay [3], the 50% effective concentration (EC50) worked out at 0.58 ± 0.3 µM.
Take `O=C(O)COc1ccccc1/C=N/NC(=O)c1ccc2c(c1)OCO2` [Compound 72]: the “Determined class” value in assay [1] was “NA (inactive derivatives were placed in the nonactive group labeled “NA”)”.
`O=C(N/N=C/c1ccc(-c2ccc(Cl)cc2Cl)o1)c1ccc2c(c1)OCO2` [Compound 24]: in assay [1] (setting [4]), the fold induction at 50 µM is under 2.
`O=C(N/N=C/c1ccc(-c2cc(Cl)ccc2Cl)o1)c1ccc([N+](=O)[O-])cc1` [Compound 7]: the fold induction at 50 µM in assay [1] (setting [4]) was under 5. Also, the concentration giving a half-maximal response (EC50) in assay [2] came to 10 µM.
For the compound `O=C(/C=C/c1ccco1)Oc1cccc(/C=N/NC(=O)c2ccc3c(c2)OCO3)c1` [Compound 59], the “Determined class” value in assay [1] was “NA (inactive derivatives were placed in the nonactive group labeled “NA”)”.
Consider `COc1ccc(/C=N/NC(=O)c2ccc3c(c2)OCO3)c(OC)c1` [Compound 69], for which, in assay [1], the “Determined class” value was “NA (inactive derivatives were placed in the nonactive group labeled “NA”)”.
As for `O=C(N/N=C/c1ccco1)c1ccccc1` [Compound 39], the “Determined class” value in assay [1] is “NA (inactive derivatives were placed in the nonactive group labeled “NA”)”. The EC50 in assay [2] was found to be 28.4 µM.
With `Cc1ccc(C(=O)N/N=C/c2ccc(-c3cccc(C(F)(F)F)c3)o2)cn1` [Compound 9], in assay [1] (setting [4]), the fold induction at 50 µM was under 5. The “TNF-α production, primary screening of agonists AG 1-26” value in assay [1] (murine J774.A1 macrophages) is recorded as “induced modest levels of TNF-α production”. In assay [2], the concentration for a half-maximal effect (EC50) is 15.8 µM.
As to `O=C(N/N=C/c1c(O)ccc2ccccc12)c1ccc2c(c1)OCO2` [Compound 68], the “Determined class” value in assay [1] is “NA (inactive derivatives were placed in the nonactive group labeled “NA”)”.
Still for that read-out and setting: with `O=C(N/N=C1\C(=O)N(Cc2cccc3ccccc23)c2ccccc21)c1ccc2c(c1)OCO2` [Compound 64] the entry was “NA (inactive derivatives were placed in the nonactive group labeled “NA”)”.
